The values below come from patent publication US11897902B1, “Nano-sized mixed ligand [4-bromo-2-(quinolin-2-yliminomethyl)-phenol imine- phenanthroline] Ru(III) complex for medicinal applications” (KING FAISAL UNIVERSITY, priority 2023, dated 2024).

In brackets after ≈: the same amount, converted by molar mass.

What all share (type): cell-based
The test system of one assay is Aspergillus flavus. The experiment in a line: Antifungal activity, well diffusion method (inhibition zone, MIC). The method, then:
To evaluate antimicrobial activity, the fungal strain (Aspergillus flavus), was used. These strains were cultured in nutrient agar and Muller-Hinton medium. Fluconazole compound was used as a standard drug for comparison.
Antifungal activities of the prepared nano-complex were studied against three fungal cultures using well diffusion method. The tested fungi were inoculated in Sabouraud dextrose broth medium (Hi-Media Mumbai) and incubated at 35° C. for 72 h and subsequently a suspension of about 1.60×10^4-6.00×10^4 c.f.u/ml was introduced agar plates and a sterile glass spreader was used for even distribution of the inoculum. The discs measuring 6 mm in diameter were prepared from Whatman No. 1 filter paper and sterilized by dry heat at 140° C. for 1 h. The sterile discs previously soaked in known concentration of the tested compounds were placed in Sabouraud dextrose Agar (SDA) plates. The plates were inverted and incubated at 35° C. for 7 days. The susceptibility was assessed on the basis of diameter of inhibition against albicans and non-albicans strain of fungi.
(In general: A growth-free zone around the sample is the usual read-out of agar diffusion tests.)

A further assay relates to Breast cancer cells line. The experiment in a line: Cytotoxic activity, Sulfo-Rhodamine-B-stain (SRB). Conditions: Homo sapiens, breast cancer cell line, 48 hours. Here is the method: The anticancer activity was made at the National Cancer Institute, Cancer Biology Department, Pharmacology Department, Cairo University. The absorbance or optical density (O.D.) of each well was measured spectrophotometrically at 564 (nm) with an “ELIZA” micro plate reader (Meter tech. Σ960, “USA”). Evaluation of the cytotoxic activity of the prepared nano-complex was carried out against Breast cancer cells line. The evaluation process was carried out in vitro using the Sulfo-Rhodamine-B-stain (SRB). Cells were placed in 96-multiwell plate (10^4 cells/well) for 24 hours before processing with the complexes to allow attachment of cell to the wall of the plate. Various concentrations of the compounds under test in DMSO (0, 1, 2.5, 5 and 10 μM) were added to the cell monolayer. Monolayer cells were incubated with the complexes for 48 hours at 37° C. and in atmosphere of 5% CO2. After 48 hours, cells were fixed, rinsed, and stained with Sulfo-Rhodamine-B-stain. Excess stain was washed with acetic acid and attached stain was treated with Tris EDTA buffer. Color intensity was measured in an ELISA reader. IC50 was evaluated and potency was calculated with regard to percentage of change of (vistabline standard). The relation between surviving fraction and compound concentration is plotted to get the survival curve of each tumor cell line after the specified compound. […]

In the next assay the test system is Escherichia coli(−ve). The experiment in a line: Antimicrobial activity, agar well diffusion (inhibition zone, MIC). The conditions noted are these: E. coli. Here is the method: To evaluate antimicrobial activity, the bacterial strain Escherichia coli(−ve), was used. These strains were cultured in a nutrient agar and Muller-Hinton medium. Ofloxacin compound was used as a standard drug for comparison.
The susceptibilities of such growth rate of microorganisms were measured in vitro by agar well diffusion method. The tested nano complex was dissolved in dimethyl sulfoxide at different concentrations (10 and 20 mg/ml). 1 cm^3 of a 24 h broth culture containing 10^6 CFU/cm^3 was placed in sterile Petri-dishes. Molten nutrient agar (15 cm 3) maintained at 45° C. was then poured into the Petri-dishes and allowed to solidify. Then holes of 6 mm diameter were formed in the agar using a sterile cork borer and these holes were completely filled with the test solutions. The plates were incubated for 24 h at 37° C. After the incubation period, the zone of inhibition of each well was determined by measuring the zones of growth inhibition (mm) against the test microorganisms with zone reader (Hi Antibiotic zone scale). […] The measurements were made in triplicate for each compound and their average values are reported.

Regarding `OC(Cn1cncn1)(Cn1cncn1)c1ccc(F)cc1F` [Fluconazol, Fluconazole], the MIC (commonly the least concentration at which growth counts as inhibited) in the assay on Aspergillus flavus is 2 µg/mL (≈ 6.53 µM). For the same compound, the inhibition zone in the assay on Aspergillus flavus (well diffusion, 35° C. for 7 days) turned out to be 24 mm.

In the case of `CC[C@]1(O)C[C@@H]2CN(CCc3c([nH]c4ccccc34)[C@@](C(=O)OC)(c3cc4c(cc3OC)N(C)[C@H]3[C@@](O)(C(=O)OC)[C@H](OC(C)=O)[C@]5(CC)C=CCN6CC[C@]43[C@@H]65)C2)C1` [vinblastine], the midpoint of inhibition with Breast cancer cells line, the IC50, lay at 4.5 µg/mL (≈ 5.55 µM).

The compound `CC1COc2c(N3CCN(C)CC3)c(F)cc3c(=O)c(C(=O)O)cn1c23` (centres unmarked) [Ofloxacin] yielded an inhibition zone in the assay on Escherichia coli(−ve) (agar well diffusion, 24 h at 37° C.) of 35 mm. In the assay on Escherichia coli(−ve) (Escherichia coli), 2.5 µg/mL (≈ 6.92 µM) was the least that counted as inhibitory (MIC).
